Experimental data reported in US10519154B2, “7-substituted 1-pyridyl-naphthyridine-3-carboxylic acid amides and use thereof” (Bayer Pharma Aktiengesellschaft, priority 2016, dated 2019).

Target: T1, human M2 receptor (Homo sapiens, UniProt P08172)
T1 sequence (P08172 1-466): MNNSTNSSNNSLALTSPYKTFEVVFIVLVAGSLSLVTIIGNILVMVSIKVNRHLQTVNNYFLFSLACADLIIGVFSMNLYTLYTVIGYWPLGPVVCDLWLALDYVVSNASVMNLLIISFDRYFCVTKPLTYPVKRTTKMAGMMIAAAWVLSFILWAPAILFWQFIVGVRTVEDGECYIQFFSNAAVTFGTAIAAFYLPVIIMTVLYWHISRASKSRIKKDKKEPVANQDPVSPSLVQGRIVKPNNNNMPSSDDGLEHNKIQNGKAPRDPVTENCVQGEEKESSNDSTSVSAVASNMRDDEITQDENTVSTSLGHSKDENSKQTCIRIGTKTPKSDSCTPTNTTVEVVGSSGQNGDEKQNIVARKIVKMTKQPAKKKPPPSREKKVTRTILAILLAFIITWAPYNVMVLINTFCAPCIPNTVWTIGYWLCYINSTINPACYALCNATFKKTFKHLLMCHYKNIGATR
Assay: Functional M2-GIRK1/4 activation test: allosteric potency (EC50) and efficiency
Conditions: for EC50: Receptor activity EC50, CHO-DUKX-M2-GIRK cells, acetylcholine at EC20, in some cases mean of two or more determinations; for Emax: read-out: Efficiency, boosting of the acetylcholine effect at EC20 acetylcholine concentration, CHO-DUKX-M2-GIRK cells

CC(C)(C)[C@H](NC(=O)c1cn(-c2ncc(F)cc2F)c2nc(N3CCN(CCO)C3=O)ccc2c1=O)C(F)(F)F [Example 124, 1-(3,5-Difluoropyridin-2-yl)-7-[3-(2-hydroxyethyl)-2-oxoimidazolidin-1-yl]-4-oxo-N-[(2S)-1,1,1-trifluoro-3,3-dimethylbutan-2-yl]-1,4-dihydro-1,8-naphthyridine-3-carboxamide]
EC50: 130 nM
Emax: 97%

CC(C)(C)[C@H](NC(=O)c1cn(-c2ncc(F)cc2F)c2nc(N3CCCN(CCO)C3=O)ccc2c1=O)C(F)(F)F [Example 125, 1-(3,5-Difluoropyridin-2-yl)-7-[3-(2-hydroxyethyl)-2-oxotetrahydropyrimidin-1(2H)-yl]-4-oxo-N-[(2S)-1,1,1-trifluoro-3,3-dimethylbutan-2-yl]-1,4-dihydro-1,8-naphthyridine-3-carboxamide]
EC50: 73 nM
Emax: 97%

CC(C)(C)[C@@H](NC(=O)c1cn(-c2ncc(F)cc2F)c2nc(N3CCN(CCO)C3=O)ccc2c1=O)C(F)(F)F [Example 126, 1-(3,5-Difluoropyridin-2-yl)-7-[3-(2-hydroxyethyl)-2-oxoimidazolidin-1-yl]-4-oxo-N-[(2R)-1,1,1-trifluoro-3,3-dimethylbutan-2-yl]-1,4-dihydro-1,8-naphthyridine-3-carboxamide]
EC50: 87 nM
Emax: 98%

CC(C)(C)[C@@H](NC(=O)c1cn(-c2ncc(F)cc2F)c2nc(N3CCCN(CCO)C3=O)ccc2c1=O)C(F)(F)F [Example 127, 1-(3,5-Difluoropyridin-2-yl)-7-[3-(2-hydroxyethyl)-2-oxotetrahydropyrimidin-1(2H)-yl]-4-oxo-N-[(2R)-1,1,1-trifluoro-3,3-dimethylbutan-2-yl]-1,4-dihydro-1,8-naphthyridine-3-carboxamide]
EC50: 50 nM
Emax: 96%

CC[C@H](NC(=O)c1cn(-c2c(F)cncc2F)c2nc(N3CCNC3=O)ccc2c1=O)C(F)(F)F [Example 128, 1-(3,5-Difluoropyridin-4-yl)-4-oxo-7-(2-oxoimidazolidin-1-yl)-N-[(2S)-1,1,1-trifluorobutan-2-yl]-1,4-dihydro-1,8-naphthyridine-3-carboxamide]
EC50: 520 nM
Emax: 89%

CC[C@H](NC(=O)c1cn(-c2ncc(F)cc2F)c2nc(N3CC[C@H](F)C3)ccc2c1=O)C(F)(F)F [Example 129, 1-(3,5-Difluoropyridin-2-yl)-7-[(3S)-3-fluoropyrrolidin-1-yl]-4-oxo-N-[(2S)-1,1,1-trifluorobutan-2-yl]-1,4-dihydro-1,8-naphthyridine-3-carboxamide]
EC50: 21 nM
Emax: 96.5%

CC[C@H](NC(=O)c1cn(-c2ncc(F)cc2F)c2nc(N(C)C)ccc2c1=O)C(F)(F)F [Example 130, 1-(3,5-Difluoropyridin-2-yl)-7-(dimethylamino)-4-oxo-N-[(2S)-1,1,1-trifluorobutan-2-yl]-1,4-dihydro-1,8-naphthyridine-3-carboxamide]
EC50: 53 nM
Emax: 93%

CC[C@H](NC(=O)c1cn(-c2ncc(F)cc2F)c2nc(N3CC(O)(C(F)(F)F)C3)ccc2c1=O)C(F)(F)F [Example 131, 1-(3,5-Difluoropyridin-2-yl)-7-[3-hydroxy-3-(trifluoromethyl)azetidin-1-yl]-4-oxo-N-[(2S)-1,1,1-trifluorobutan-2-yl]-1,4-dihydro-1,8-naphthyridine-3-carboxamide]
EC50: 108 nM
Emax: 95.5%

CC[C@H](NC(=O)c1cn(-c2ncc(F)cc2F)c2nc(N3CC(F)C3)ccc2c1=O)C(F)(F)F [Example 132, 1-(3,5-Difluoropyridin-2-yl)-7-(3-fluoroazetidin-1-yl)-4-oxo-N-[(2S)-1,1,1-trifluorobutan-2-yl]-1,4-dihydro-1,8-naphthyridine-3-carboxamide]
EC50: 325 nM
Emax: 98%

CC[C@H](NC(=O)c1cn(-c2ncc(F)cc2F)c2nc(N3CC(O)C3)ccc2c1=O)C(F)(F)F [Example 133, 1-(3,5-Difluoropyridin-2-yl)-7-(3-hydroxyazetidin-1-yl)-4-oxo-N-[(2S)-1,1,1-trifluorobutan-2-yl]-1,4-dihydro-1,8-naphthyridine-3-carboxamide]
EC50: 315 nM
Emax: 92%

O=C(N[C@H](C1CC1)C(F)(F)F)c1cn(-c2ncccc2F)c2nc(N3C[C@@H](O)CC3=O)ccc2c1=O [Example 139, N-[(1R)-1-Cyclopropyl-2,2,2-trifluoroethyl]-1-(3-fluoropyridin-2-yl)-7-[(4S)-4-hydroxy-2-oxopyrrolidin-1-yl]-4-oxo-1,4-dihydro-1,8-naphthyridine-3-carboxamide]
EC50: 230 nM
Emax: 100%

CCC(COC(F)(F)F)NC(=O)c1cn(-c2ncc(F)cc2F)c2nc(N3C[C@@H](C)NC3=O)ccc2c1=O (stereo partly drawn) [Example 141, 1-(3,5-Difluoropyridin-2-yl)-7-[(4R)-4-methyl-2-oxoimidazolidin-1-yl]-4-oxo-N-[1-(trifluoromethoxy)butan-2-yl]-1,4-dihydro-1,8-naphthyridine-3-carboxamide]
EC50: 18 nM
Emax: 95%

C[C@@H]1CN(c2ccc3c(=O)c(C(=O)N[C@@H](C4CC4)C(F)(F)F)cn(-c4ncc(F)cc4F)c3n2)C(=O)N1 [Example 142, N-[(1S)-1-cyclopropyl-2,2,2-trifluoroethyl]-1-(3,5-difluoropyridin-2-yl)-7-[(4R)-4-methyl-2-oxoimidazolidin-1-yl]-4-oxo-1,4-dihydro-1,8-naphthyridine-3-carboxamide]
EC50: 47 nM
Emax: 94.5%

CC[C@H](NC(=O)c1cn(-c2ncc(F)cc2F)c2nc(N3C[C@@H](C)NC3=O)ccc2c1=O)C(F)(F)F [Example 143, 1-(3,5-difluoropyridin-2-yl)-7-[(4R)-4-methyl-2-oxoimidazolidin-1-yl]-4-oxo-N-[(2S)-1,1,1-trifluorobutan-2-yl]-1,4-dihydro-1,8-naphthyridine-3-carboxamide]
EC50: 90 nM
Emax: 90%

C[C@@H]1CN(c2ccc3c(=O)c(C(=O)NC(C)(C)C(F)F)cn(-c4ncc(F)cc4F)c3n2)C(=O)N1 [Example 144, N-(1,1-difluoro-2-methylpropan-2-yl)-1-(3,5-difluoropyridin-2-yl)-7-[(4R)-4-methyl-2-oxoimidazolidin-1-yl]-4-oxo-1,4-dihydro-1,8-naphthyridine-3-carboxamide]
EC50: 150 nM
Emax: 92%

CC(C)(CC(F)(F)F)NC(=O)c1cn(-c2ncc(F)cc2F)c2nc(N3CCNC3=O)ccc2c1=O [Example 145, 1-(3,5-Difluoropyridin-2-yl)-4-oxo-7-(2-oxoimidazolidin-1-yl)-N-(4,4,4-trifluoro-2-methylbutan-2-yl)-1,4-dihydro-1,8-naphthyridine-3-carboxamide]
EC50: 435 nM
Emax: 98.5%

O=C(NC1CCC1)c1cn(-c2ncc(F)cc2F)c2nc(N3CCNC3=O)ccc2c1=O [Example 146, N-Cyclobutyl-1-(3,5-difluoropyridin-2-yl)-4-oxo-7-(2-oxoimidazolidin-1-yl)-1,4-dihydro-1,8-naphthyridine-3-carboxamide]
EC50: 910 nM
Emax: 96%

O=C(NC1(C(F)(F)F)CCC1)c1cn(-c2ncc(F)cc2F)c2nc(N3CCNC3=O)ccc2c1=O [Example 150, 1-(3,5-Difluoropyridin-2-yl)-4-oxo-7-(2-oxoimidazolidin-1-yl)-N-[1-(trifluoromethyl)cyclobutyl]-1,4-dihydro-1,8-naphthyridine-3-carboxamide]
EC50: 375 nM
Emax: 88%

O=C(NC1(C(F)(F)F)CCC1)c1cn(-c2ncc(F)cc2F)c2nc(N3C[C@@H](O)CC3=O)ccc2c1=O [Example 151, 1-(3,5-Difluoropyridin-2-yl)-7-[(4S)-4-hydroxy-2-oxopyrrolidin-1-yl]-4-oxo-N-[1-(trifluoromethyl)cyclobutyl]-1,4-dihydro-1,8-naphthyridine-3-carboxamide]
EC50: 290 nM
Emax: 99%

CC(NC(=O)c1cn(-c2ncc(F)cc2F)c2nc(N3C[C@@H](O)[C@H](O)C3)ccc2c1=O)(C(F)(F)F)C(F)(F)F [Example 152, 1-(3,5-Difluoropyridin-2-yl)-7-[(3R,4R)-3,4-dihydroxypyrrolidin-1-yl]-N-(1,1,1,3,3,3-hexafluoro-2-methylpropan-2-yl)-4-oxo-1,4-dihydro-1,8-naphthyridine-3-carboxamide]
EC50: 103 nM
Emax: 99.5%

CC(NC(=O)c1cn(-c2ncc(F)cc2F)c2nc(N3C[C@@H](O)[C@H](O)C3)ccc2c1=O)(C1CC1)C(F)(F)F (stereo partly shown) [Example 153]
EC50: 200 nM
Emax: 100%

CC(C)C(NC(=O)c1cn(-c2ncc(F)cc2F)c2nc(N3C[C@@H](O)CC3=O)ccc2c1=O)C(F)(F)F (stereo partly drawn) [Example 154, 1-(3,5-Difluoropyridin-2-yl)-7-[(4S)-4-hydroxy-2-oxopyrrolidin-1-yl]-4-oxo-N-[1,1,1-trifluoro-3-methylbutan-2-yl]-1,4-dihydro-1,8-naphthyridine-3-carboxamide]
EC50: 89 nM
Emax: 100%

O=C(NC1(C(F)(F)F)CCC1)c1cn(-c2ncc(F)cc2F)c2nc(N3C[C@@H](O)[C@H](O)C3)ccc2c1=O [Example 155, 1-(3,5-Difluoropyridin-2-yl)-7-[(3R,4R)-3,4-dihydroxypyrrolidin-1-yl]-4-oxo-N-[1-(trifluoromethyl)cyclobutyl]-1,4-dihydro-1,8-naphthyridine-3-carboxamide]
EC50: 360 nM
Emax: 100%
